Measurements: patent publication US7258999B2, “PTH responsive gene” (Wyeth, priority 2002, dated 2007)

Tested on: PAIGB protein
Assay: Immunohistochemistry of PAIGB protein in mouse calvariae
Assay type: in vivo
Settings: Swiss Webster mice, 20 μg/kg/day sc onto the calvariae, 18 days
Description: Immunohistochemical analysis of PAIGB protein express can be assessed in various animal species such as human bone biopsy samples, mouse, rat, or dog bone samples etc., that have been treated with potential bone anabolic agents. For example, Swiss Webster mice were treated with 20 μg/kg/day PTH 1-34 subcutaneously onto the calvariae for 18 days. Following the 18 days, the calvariae samples were harvested and PAIGB protein expression was analyzed using the PAIGB polyclonal antibody (FIG. 20, FIG. 21 and FIG. 22).
The mouse calvariae was gently dissected and fixed in 10% phosphate-buffered formalin. After fixation, the calvariae were decalcified in TBD-2 decalcifying agent (SHANDON, Cat. # 6764003) for 7-8 hrs, dehydrated in graded alcohol, embedded in paraffin. The calvariae was bisected perpendicular to the sagittal suture through the central portion of the parietal bones parallel to the lambdoidal and coronal sutures and embedded in paraffin. Four to six 5 μm-thick representative, non-consecutive step sections were cut. Various sections were stained with hematoxylin and eosin (H&E) (Sigma, St. Louis, Mo.) and adjacent section were used for immunohistochemistry. The bone samples were then deparafinized in xylene and rehydrated in graded ethanol and PBS. […] The peroxidase was detected using peroxidase substrate kit DAB (SK-4100, Vector Laboratories).

With human PTH (1-34) the “PAIGB protein expression in calvariae (immunohistochemistry)” value was “induced”.
